{"source": "PubChem BioAssay AID248", "about": "(DTP/NCI, 2004)", "tested_on": "L1210 leukemia ip in BDF1 mice, survival T/C", "assay": "NCI In Vivo Anticancer Drug Screen. Data for tumor model L1210 Leukemia (intraperitoneal) in B6D2F1 (BDF1) mice", "conditions": "endpoint: mean survival time, higher = longer survival", "in_short": "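Tumor was transplanted into mice, which were then dosed with test compound or vehicle alone. Survival was recorded for each group, and the treated figure was expressed relative to the control figure.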", "note": "“And” between values parts separate entries of the source, which are not always exact repeats. Identical values can stand only once. Toxic doses and inconclusive results are not listed."}
{"smiles": "C1CN1c1nc(N2CC2)nc(N2CC2)n1", "values": [{"measurement": "T/C", "setting": "dose: 0.05 mg/kg/injection, schedule: Q01DX009 (ip), vehicle: saline", "value": "94 % of control"}, {"measurement": "T/C", "setting": "dose: 0.06 mg/kg/injection, schedule: Q01DX009 (ip), vehicle: saline", "value": "95 % of control"}, {"measurement": "T/C", "setting": "dose: 0.06 mg/kg/injection, schedule: Q01DX Z (ip), vehicle: saline", "value": "97 % of control"}, {"measurement": "T/C", "setting": "dose: 0.1 mg/kg/injection, schedule: Q01DX009 (ip), vehicle: saline", "value": "105 % of control"}, {"measurement": "T/C", "setting": "dose: 0.12 mg/kg/injection, schedule: Q01DX005 (ip), vehicle: saline", "value": "115 % of control"}, {"measurement": "T/C", "setting": "dose: 0.12 mg/kg/injection, schedule: Q01DX009 (ip), vehicle: saline", "value": "107 % of control"}, {"measurement": "T/C", "setting": "dose: 0.12 mg/kg/injection, schedule: Q01DX009 (sc), vehicle: saline", "value": "101 % of control"}, {"measurement": "T/C", "setting": "dose: 0.12 mg/kg/injection, schedule: Q01DX010 (ip), vehicle: saline", "value": "110 % of control"}, {"measurement": "T/C", "setting": "dose: 0.12 mg/kg/injection, schedule: Q01DX Z (ip), vehicle: carboxymethylcellulose (CMC)", "value": "113 % of control"}, {"measurement": "T/C", "setting": "dose: 0.12 mg/kg/injection, schedule: Q01DX Z (ip), vehicle: saline", "value": "118 % of control"}, {"measurement": "T/C", "setting": "dose: 0.13 mg/kg/injection, schedule: Q01DX009 (ip), vehicle: saline", "value": "110 % of control"}, {"measurement": "T/C", "setting": "dose: 0.13 mg/kg/injection, schedule: Q01DX010 (oral), vehicle: carboxymethylcellulose (CMC)", "value": "119 % of control"}, {"measurement": "T/C", "setting": "dose: 0.16 mg/kg/injection, schedule: Q01DX001 (ip), vehicle: saline", "value": "109 % of control and 120 % of control"}, {"measurement": "T/C", "setting": "dose: 0.2 mg/kg/injection, schedule: Q01DX009 (ip), vehicle: saline", "value": "121 % of control"}, {"measurement": "T/C", "setting": "dose: 0.25 mg/kg/injection, schedule: Q01DX001 (ip), vehicle: saline", "value": "103 % of control"}, {"measurement": "T/C", "setting": "dose: 0.25 mg/kg/injection, schedule: Q01DX005 (ip), vehicle: saline", "value": "115 % of control"}, {"measurement": "T/C", "setting": "dose: 0.25 mg/kg/injection, schedule: Q01DX006 (iv), vehicle: saline", "value": "119 % of control"}, {"measurement": "T/C", "setting": "dose: 0.25 mg/kg/injection, schedule: Q01DX009 (sc), vehicle: saline", "value": "123 % of control"}, {"measurement": "T/C", "setting": "dose: 0.25 mg/kg/injection, schedule: Q01DX Z (ip), vehicle: carboxymethylcellulose (CMC)", "value": "119 % of control"}, {"measurement": "T/C", "setting": "dose: 0.25 mg/kg/injection, schedule: Q01DX Z (sc), vehicle: saline", "value": "124 % of control"}, {"measurement": "T/C", "setting": "dose: 0.48 mg/kg/injection, schedule: Q## X008 (ip), vehicle: saline", "value": "110 % of control"}, {"measurement": "T/C", "setting": "dose: 0.48 mg/kg/injection, schedule: Q## X016 (ip), vehicle: saline", "value": "103 % of control"}, {"measurement": "T/C", "setting": "dose: 0.48 mg/kg/injection, schedule: Q## X024 (ip), vehicle: saline", "value": "107 % of control"}, {"measurement": "T/C", "setting": "dose: 0.5 mg/kg/injection, schedule: Q01DX001 (ip), vehicle: saline", "value": "107 % of control"}, {"measurement": "T/C", "setting": "dose: 0.5 mg/kg/injection, schedule: Q01DX001 (sc), vehicle: saline", "value": "112 % of control"}, {"measurement": "T/C", "setting": "dose: 0.5 mg/kg/injection, schedule: Q01DX006 (iv), vehicle: saline", "value": "150 % of control"}, {"measurement": "T/C", "setting": "dose: 0.5 mg/kg/injection, schedule: Q01DX009 (oral), vehicle: saline", "value": "107 % of control"}, {"measurement": "T/C", "setting": "dose: 0.5 mg/kg/injection, schedule: Q01DX010 (oral), vehicle: carboxymethylcellulose (CMC)", "value": "164 % of control"}, {"measurement": "T/C", "setting": "dose: 0.5 mg/kg/injection, schedule: Q01DX Z (im), vehicle: saline", "value": "156 % of control"}, {"measurement": "T/C", "setting": "dose: 0.5 mg/kg/injection, schedule: Q04DX003 (ip), vehicle: Klucel (hydroxypropylcellulose) (HPC)", "value": "117 % of control"}, {"measurement": "T/C", "setting": "dose: 0.5 mg/kg/injection, schedule: Q## X002 (ip), vehicle: saline", "value": "109 % of control"}, {"measurement": "T/C", "setting": "dose: 0.5 mg/kg/injection, schedule: Q## X003 (ip), vehicle: saline", "value": "110 % of control and 115 % of control"}, {"measurement": "T/C", "setting": "dose: 0.5 mg/kg/injection, schedule: Q## X006 (ip), vehicle: saline", "value": "107 % of control"}, {"measurement": "T/C", "setting": "dose: 0.5 mg/kg/injection, schedule: Q## X024 (ip), vehicle: saline", "value": "102 % of control"}, {"measurement": "T/C", "setting": "dose: 0.5 mg/kg/injection, schedule: Q#A X Z (ip), vehicle: saline", "value": "151 % of control"}, {"measurement": "T/C", "setting": "dose: 0.67 mg/kg/injection, schedule: Q01DX005 (ip), vehicle: saline", "value": "153 % of control and 158 % of control"}, {"measurement": "T/C", "setting": "dose: 0.7 mg/kg/injection, schedule: Q01DX001 (ip), vehicle: saline", "value": "103 % of control and 105 % of control"}, {"measurement": "T/C", "setting": "dose: 0.8 mg/kg/injection, schedule: Q01DX009 (ip), vehicle: saline", "value": "115 % of control"}, {"measurement": "T/C", "setting": "dose: 0.86 mg/kg/injection, schedule: Q01DX001 (ip), vehicle: saline", "value": "159 % of control"}, {"measurement": "T/C", "setting": "dose: 0.96 mg/kg/injection, schedule: Q## X008 (ip), vehicle: saline", "value": "106 % of control"}, {"measurement": "T/C", "setting": "dose: 0.96 mg/kg/injection, schedule: Q## X016 (ip), vehicle: saline", "value": "111 % of control"}, {"measurement": "T/C", "setting": "dose: 1.0 mg/kg/injection, schedule: Q01DX001 (sc), vehicle: saline", "value": "115 % of control"}, {"measurement": "T/C", "setting": "dose: 1.0 mg/kg/injection, schedule: Q01DX006 (iv), vehicle: saline", "value": "114 % of control"}]}
